Measurements from US20220080026A1, “FORMULATIONS” (Sublimity Therapeutics Limited, priority 2013, published 2022).
Where a name gives a salt, the structure may show the parent alone.

Settings: heated at 60-70° C.

NNc1nncc2ccccc12 [Hydralazine HCl]
solubility in the aqueous phase of the formulation: fully soluble
